Reference: a melting point compilation (Tetko et al.)

SMILES	melting point [°C]
COC(=O)c1ccc(C)c(C)c1	36 to 38
Cc1cc(C(C)(C)C)cc(C)c1O	82.4
O=C(c1ccc2ccccc2c1)c1noc(-c2ccc(Br)cc2)c1S(=O)(=O)c1ccccc1	173
NCc1ccc2nccn2c1	97 to 99
Cc1cc(Br)ccc1N=C=S	45 to 46
Cc1cc(C)c(CC(=O)c2cc3ccccc3o2)c(C)c1	172 to 173
Cc1cc([N+](=O)[O-])ccc1F	39
N#CCC=CCC#N	76
O=C(Oc1ccccc1C(=O)O)c1ccccc1O	147
CC1(C)OCC2OC3OC(C)(C)OC3C2O1 (stereo unspecified)	42 to 46
CCCC(C)Cl (stereo unspecified)	-80
Cc1cc([N+](=O)[O-])c[nH]c1=O	230 to 234
COc1ccc(Br)c(C(N)=O)c1	160
CCOC(=O)CC(=O)c1cc(OC)c(OC)c(OC)c1	86 to 91
CC(CCC(=O)O)C1CCC2C3C(=O)CC4CC(C(=O)O)CCC4(C)C3CC(C(=O)O)C12C (stereo unspecified)	207 to 209
CN1C(=O)C(=NNc2ccc(Br)cc2)C(=O)N(C)C1=O	218
Cn1cncc1CC1COC(=O)C1C(O)c1ccccc1 (stereo unspecified)	179
Cc1cncc(C)n1	47.5
COc1cc(N=Nc2c(Br)cc([N+](=O)[O-])cc2[N+](=O)[O-])c(NC(C)=O)c(N(CCOC(C)=O)CCOC(C)=O)c1	132
COc1ccc(C2NCCc3sccc32)cc1 (stereo unspecified)	69 to 71
CNC(=O)Oc1cccc2ccccc12	142
N#CC(C#N)=C1CC(c2ccc(Cl)cc2)=C(C#N)C(=N)N1c1ccccc1	290 to 295
CC(=O)OCCOCCOC(C)=O	18
O=C(Nc1cc(Cl)cc(Cl)c1O)c1c(O)c(Cl)cc(Cl)c1Cl	210
O=C(CCl)Nc1ccc(Cl)cc1C(=O)c1ccccc1Cl	161 to 163
Ic1cccc(Cn2cccn2)c1	51 to 54

SMILES	melting point [°C]
NS(=O)(=O)c1ccccc1OC(F)(F)F	188
Nc1ccc(S(=O)(=O)c2ccc(NCCO)cc2)cc1	131
CC1C(=O)C2(C)CCC1C2(C)C (stereo unspecified)	38
CC(C)CC(=O)C=Cc1ccccc1	43
O=C1c2ccccc2CC2C=Cc3ccccc3N12 (stereo unspecified)	91
COC(=O)C=Cc1cccc(C=CC(=O)OC)c1	132
O=S(=O)(F)Cc1ccccc1	93
O=C1CCC(F)(F)CC1	39
CC(/C=C(\C)c1ccc(C)cc1)=NNc1ccc([N+](=O)[O-])cc1[N+](=O)[O-]	182 to 184
COC(=O)c1c(C)cc(=O)oc1C	66 to 70
Clc1ccc(N=Nc2ccccc2)cc1	88
CC(C)(C)OC(=O)N1CCN(c2cc(C#N)ccn2)CC1	127 to 129
CC(=O)OCC(=O)C1(O)CCC2(O)C3CCC4=CC(=O)CCC4(C)C3CCC12C (stereo unspecified)	236
N#CC1CCCCC1	11
CCCCCCCCC(=O)CCCCCC	31
CC(=O)NC1C(Oc2ccc([N+](=O)[O-])cc2)OC(CO)C(O)C1O (stereo unspecified)	264
O=C1OC(c2ccccn2)Cc2ccccc21 (stereo unspecified)	156
c1ccc(-c2cc[nH]n2)cc1	75 to 77
CC(=O)Nc1ccc(F)cc1[N+](=O)[O-]	70 to 73
CCCCCCCCC(=O)c1ccc(/N=N/c2ccc(OCC)cc2)cc1	63 to 108
CC(C)(C)OC(=O)N1c2ccccc2CC1C(=O)O (stereo unspecified)	121 to 122
Cn1ccc(-c2ccc(CCl)cc2)n1	78 to 80
COc1ccc2c(c1)CC1(CCC(=O)C(C(=O)O)C1)C2=O (stereo unspecified)	120
ClC(Cl)N(C(Cl)Cl)C(Cl)Cl	170 to 173
Cc1cc(N=Nc2ccc(N)cc2)c(C(C)C)cc1N=Nc1ccc(N)cc1	177
CCOC(=O)C1=C(C)NC(=O)NC1c1ccccc1Cl (stereo unspecified)	217

SMILES	melting point [°C]
CON(/C=C1\C(=O)C2(C)CCC1C2(C)C)c1ccccc1 (stereo unspecified)	75 to 76
Clc1cc(-c2ccccn2)nc(-c2ccccn2)c1	150
O=C(O)c1ccc(Sc2ccc(Cl)cc2)c([N+](=O)[O-])c1	217 to 220
O=C1c2nonc2CCC1Br (stereo unspecified)	65 to 68
CC(C)c1cc(C(C)C)c(-c2ccccc2P(C2CCCCC2)C2CCCCC2)c(C(C)C)c1	185
NC(=O)NC=O	170 to 173
C=C(C(=O)OC1CC(C)=CCCC(CO)=CC2OC(=O)C(=C)C21)C(O)CO (stereo unspecified)	143
O=C(CBr)c1ccc(F)c(F)c1	28 to 30
CCCCCCCCCCCC(N)=O	110
Cc1cc(C)c(Br)c(C)c1Br	65.5
FCc1ccccc1	-35
N#Cc1c(NC(=O)CN2CCOCC2)sc2c1CCCC2	178 to 179
CC1=C2C3OC(=O)C(C)C3CCC2(C)C=CC1=O (stereo unspecified)	175
NC(CC(=O)O)c1ccc(Cl)cc1 (stereo unspecified)	243 to 245
CCCCCCCCOc1ccc(C(C)=O)cc1OCCCCCCCC	59 to 61
CCOc1ccc(C=O)cc1OCC	22
CCCCC=CCCCCCCCCOC(C)=O	1.3
O=C(O)c1cc(F)cc([N+](=O)[O-])c1	125
CCOC(=O)C1=C(C)NC(=O)NC1c1ccc(O)c(OC)c1 (stereo unspecified)	190
CC(=O)Oc1cccc(O)c1	55
CC(C)C(C)C(C)(C)C (stereo unspecified)	-121
O=C1Nc2ccccc2C12OCCO2	125 to 128
Cc1ccc(C(=O)COc2c(C(=O)c3ccc(Cl)c(C)c3Cl)c(C)nn2C)cc1	133
O=C=NS(=O)(=O)Cl	-44
N#Cc1ccc2c(c1)[N+]([O-])=C(c1cccc(C3=[N+]([O-])c4cc(C#N)ccc4C3=O)c1)C2=O	270 to 320
OC1OCC(OCc2ccccc2)C(OCc2ccccc2)C1OCc1ccccc1 (stereo unspecified)	78

SMILES	melting point [°C]
CC(CC(=O)O)CC(C)(C)C (stereo unspecified)	-70
C=CCNC(=S)Nc1sc2c(c1C(=O)OCC)CCN(Cc1ccccc1)C2	138 to 139
CC1OC(OC2C(Oc3cc(O)c4c(c3)OC(c3ccc(O)cc3)CC4=O)OC(CO)C(O)C2O)C(O)C(O)C1O (stereo unspecified)	166
O=C1NC2NC(=O)NC2N1 (stereo unspecified)	300
CCC(CO)NC(=O)C1C=C2c3cccc4c3c(cn4C)CC2N(C)C1 (stereo unspecified)	195
Nc1ccc(N=Nc2ccccc2)cc1	127
Cc1ccc(C(Br)C(=O)c2ccc(Cl)cc2)cc1 (stereo unspecified)	76 to 78
C[N+](C)(C)CC(=O)[O-]	301
Cc1ccc(C(c2ccc(C)o2)c2cc(Br)cc(Br)c2O)o1	88
COc1cc(OC)cc(C(C)=O)c1	40
CC(C)(C)NC[C@H](O)CO	85 to 89
CC1(C)C(=O)N(Br)C(=O)N1Cl	164
CCCCCCCCCCCCCC(=O)OC(=O)CCCCCCCCCCCCC	53.4
CCOC(=O)C(=Nn1nnc2ccccc21)C(=O)OCC	100
Cc1cccc(CC(=O)O)c1	64
NC(Cc1ccc(O)c(I)c1)C(=O)O (stereo unspecified)	205
CNC(=O)ON=C(CSC)C(C)(C)C	57
O=C(CCl)Nc1ccccc1C(F)(F)F	92 to 94
Clc1c(Cl)c(Cl)c2c(c1Cl)Oc1c(Cl)c(Cl)c(Cl)c(Cl)c1O2	330
NC(CCC(=O)O)C(=O)O (stereo unspecified)	205
CC(C)=NNC(N)=O	182
O=C(CC(=O)c1ccccc1O)c1ccccc1	120
CN(C)c1cccc(C(=O)O)c1	151
CCOC(=O)c1cn[nH]c1NC(=O)Nc1cccc(Cl)c1	257 to 259
CCNC(N)=O	92.5
Clc1cccc(Cl)c1I	64 to 67

SMILES	melting point [°C]
COC1N(c2ccccc2)N=C(c2ccccc2)N1c1ccccc1 (stereo unspecified)	80
O=C(Oc1ccc(Cl)cc1)c1ccc(C(=O)Oc2ccc(Cl)cc2)cc1	197
CCNc1ccc2c(C(F)(F)F)cc(=O)oc2c1	158 to 159
CC(=O)Nc1ccc(C)cc1Br	118
CCOC(=O)Oc1c(OC)cc(C(=O)OC2CC3CN4CCc5c([nH]c6cc(OC)ccc56)C4CC3C(C(=O)OC)C2OC)cc1OC (stereo unspecified)	177
CC(C)C[C@H](N)[C@@H](O)CC(=O)O	209
Cc1cccc2c1[nH]c(=O)c1cc(NC(=O)c3ccccc3)c(=O)oc12	> 300
Cc1cccc(Cl)c1C#N	81
OCC1CCCCN1 (stereo unspecified)	69
CCS(=O)CC	14
FC(Cl)(Cl)c1ccccc1	-26.8
COc1cc(OC)c(C(=O)/C=C/c2cc3c(cc2[N+](=O)[O-])OCO3)c(OC)c1	224
CN1C(=O)CN=C(c2ccccc2)c2cc([N+](=O)[O-])ccc21	157
O=C(c1cccs1)c1noc(-c2ccc([N+](=O)[O-])cc2)c1S(=O)(=O)c1ccccc1	139
Cn1ccc(-c2ccc(N=C=O)cc2)n1	67 to 70
Cc1ccc(O)c(Cl)c1C	27
CC(C)C1COC2(C)C=CC(=O)N12 (stereo unspecified)	46 to 50
COC(=O)CCC(C)C1CCC2C3C(=O)CC4CC(=O)CCC4(C)C3CC(=O)C12C (stereo unspecified)	242 to 243
Cc1cc(N(C)C)ccc1N=Nc1ccccc1	68
O=C(c1ccccc1)C1(O)CCCCC1	48
CC(C)(C)c1ccc(C2CCC3(CC2)Cc2ccc(C(=O)Nc4ccccc4OCCCC(=O)O)cc2C3)cc1 (stereo unspecified)	150
O=C1CCc2cc(Br)ccc2C1	70 to 76
